7 compounds from ChEMBL document CHEMBL4825659, “Terpenoids from Chinese Liverworts Scapania spp” (J Nat Prod, 2021) can be followed below.

The structures appear in SMILES notation. Active and inactive are the calls of the source. No cut-off for these calls is given here.

A short description of test [1]: Cytotoxicity against mouse Hepa1c1c7 cells incubated for 24 hrs by MTT based assay. The format is functional, cell-based. As to conditions: Hepa-1c1c7, 24 h.
Test [2] addresses NAD(P)H dehydrogenase [quinone] 1 (Mus musculus) (UniProt Q64669). The experiment in a line: Induction of quinone reductase activity in mouse Hepa1c1c7 cells at 50 uM incubated for 24 hrs by MTT based assay relative to control. The format is cell-based.

Sequence of NAD(P)H dehydrogenase [quinone] 1 (Mus musculus) (Q64669 whole entry): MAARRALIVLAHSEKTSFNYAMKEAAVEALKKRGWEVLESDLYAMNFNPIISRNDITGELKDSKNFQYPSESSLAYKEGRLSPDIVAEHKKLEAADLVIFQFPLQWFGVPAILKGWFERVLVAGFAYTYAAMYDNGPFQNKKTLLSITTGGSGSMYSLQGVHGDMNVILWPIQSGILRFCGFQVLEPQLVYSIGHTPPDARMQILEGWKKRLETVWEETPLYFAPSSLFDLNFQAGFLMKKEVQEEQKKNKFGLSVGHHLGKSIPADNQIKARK

As usually defined, the IC50 is the point on the concentration scale where inhibition reaches its midpoint. High values mean weaker potency, low ones greater potency. Turning to `C[C@H]1C[C@H]2O[C@@]3(C)[C@@H](O)CCC45O[C@@](C6=CC(=O)OC6O)(C[C@]14C)OC[C@@]253` (some centres undefined), in test [1], the IC50 is greater than 50 µM. Also, the result in test [2] was inactive.

Consider `CC(=O)O[C@@H]1C[C@H](C)[C@@]2(C)C[C@@]3(c4ccoc4)OC[C@]14C2(CC[C@@H]1O[C@@]14C)O3`, for which the IC50 in test [1] is greater than 50 µM. For the same compound, in test [2], the result was inactive.

The compound `CC(=O)O[C@@H]1C[C@H](C)[C@@]2(C)C[C@@]3(C4=CC(=O)OC4O)OC[C@]14C2(CC[C@@H]1O[C@@]14C)O3` (some centres undefined) showed an IC50 in test [1] greater than 50 µM. In addition, in test [2] (filed as activator), the result was Active.

`CC(=O)O[C@@H]1C[C@H](C)[C@@]2(C)C[C@@]3(C4=CC(O)OC4=O)OC[C@]14C2(CC[C@@H]1O[C@@]14C)O3` (some centres undefined) registered an IC50 in test [1] greater than 50 µM. In addition, the outcome in test [2] (filed as activator) was Active.

`CO[C@]1(C2=CC(=O)OC2O)C[C@]2(C)[C@@H](C)C[C@@H](OC(C)=O)[C@]3(COC(C)=O)C2(CC[C@@H]2O[C@@]23C)O1` (some centres undefined) returned an IC50 in test [1] greater than 50 µM. Moreover, the outcome in test [2] (filed as activator) was Active.

In test [1], `CC1(C)CC[C@@H](O)[C@]2(C)[C@@H]1C(=O)C[C@@]13C[C@H]4[C@@H](C(=O)[C@H]12)[C@]4(C)C3` registered an IC50 greater than 50 µM. The outcome in test [2] was inactive.

The compound `C[C@H]1C[C@H]2O[C@@]3(C)[C@@H](O)CCC45O[C@@](c6ccoc6)(C[C@]14C)OC[C@@]253` displayed an IC50 in test [1] greater than 50 µM. Moreover, the result in test [2] was inactive.
